Counter-ions that a name gives are not always drawn. Where no end group is shown, it is not given here.
Columns and labels:
[1] = molecular target: T1, OPRD1 (Homo sapiens, UniProt P41143); assay: GPCR calcium flux assay; format: cell-based; conditions: read-out: Known agonists EC50
T1 construct: Pharmaron (Beijing, China), contract laboratory

[2] = molecular target: CB2 (Homo sapiens, UniProt P34972); assay: LANCE Ultra cAMP assay; conditions: read-out: IC50 (known antagonists, TP-16); CB2
[3] = molecular target: HTR1B (Homo sapiens, UniProt P28222); assay: LANCE Ultra cAMP assay
[4] = molecular target: T2, BB1 (Homo sapiens, UniProt P28336); assay: GPCR calcium flux assay; format: cell-based; conditions: read-out: Known agonists EC50
T2 construct: Pharmaron (Beijing, China), contract laboratory

[5] = molecular target: T3, HTR2B (Homo sapiens, UniProt P41595); assay: GPCR calcium flux assay; format: cell-based
T3 construct: Pharmaron (Beijing, China), contract laboratory

[6] = molecular target: T4, AT1 (Homo sapiens, UniProt P30556); assay: GPCR calcium flux assay; format: cell-based; conditions: read-out: Known agonists EC50
T4 construct: Pharmaron (Beijing, China), contract laboratory
T4 sequence (P30556 whole entry): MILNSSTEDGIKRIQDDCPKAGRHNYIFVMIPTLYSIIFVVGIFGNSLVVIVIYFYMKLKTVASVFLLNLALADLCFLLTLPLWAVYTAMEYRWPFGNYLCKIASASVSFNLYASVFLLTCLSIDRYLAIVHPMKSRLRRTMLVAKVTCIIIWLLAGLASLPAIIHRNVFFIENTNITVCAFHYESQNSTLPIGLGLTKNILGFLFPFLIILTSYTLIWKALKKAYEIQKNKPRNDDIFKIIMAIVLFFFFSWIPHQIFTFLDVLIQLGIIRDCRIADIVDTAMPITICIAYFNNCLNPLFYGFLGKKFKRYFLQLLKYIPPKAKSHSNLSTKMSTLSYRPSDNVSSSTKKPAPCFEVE

Chain of HTR1B (P28222 whole entry): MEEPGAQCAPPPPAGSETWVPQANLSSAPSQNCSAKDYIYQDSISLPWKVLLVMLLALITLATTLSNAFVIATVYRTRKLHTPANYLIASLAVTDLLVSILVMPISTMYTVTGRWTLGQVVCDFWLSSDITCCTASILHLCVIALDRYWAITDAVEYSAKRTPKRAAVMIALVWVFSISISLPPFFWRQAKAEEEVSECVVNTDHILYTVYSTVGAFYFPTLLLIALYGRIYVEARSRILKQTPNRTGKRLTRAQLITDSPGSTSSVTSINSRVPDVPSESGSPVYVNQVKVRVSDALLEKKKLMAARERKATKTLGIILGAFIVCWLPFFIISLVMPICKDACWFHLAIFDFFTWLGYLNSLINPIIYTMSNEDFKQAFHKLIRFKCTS
T2 sequence (P28336 whole entry): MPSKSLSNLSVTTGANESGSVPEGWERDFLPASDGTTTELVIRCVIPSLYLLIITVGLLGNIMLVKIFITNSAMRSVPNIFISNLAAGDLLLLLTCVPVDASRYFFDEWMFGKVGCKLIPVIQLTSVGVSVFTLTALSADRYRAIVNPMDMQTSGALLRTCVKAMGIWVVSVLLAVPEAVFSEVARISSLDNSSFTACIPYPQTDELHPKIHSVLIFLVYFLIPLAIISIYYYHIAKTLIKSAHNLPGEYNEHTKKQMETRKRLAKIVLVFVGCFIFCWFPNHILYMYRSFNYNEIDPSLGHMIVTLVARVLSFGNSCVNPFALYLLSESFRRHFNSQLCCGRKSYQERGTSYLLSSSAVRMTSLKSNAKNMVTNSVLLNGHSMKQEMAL
Chain of CB2 (P34972 whole entry, species assumed): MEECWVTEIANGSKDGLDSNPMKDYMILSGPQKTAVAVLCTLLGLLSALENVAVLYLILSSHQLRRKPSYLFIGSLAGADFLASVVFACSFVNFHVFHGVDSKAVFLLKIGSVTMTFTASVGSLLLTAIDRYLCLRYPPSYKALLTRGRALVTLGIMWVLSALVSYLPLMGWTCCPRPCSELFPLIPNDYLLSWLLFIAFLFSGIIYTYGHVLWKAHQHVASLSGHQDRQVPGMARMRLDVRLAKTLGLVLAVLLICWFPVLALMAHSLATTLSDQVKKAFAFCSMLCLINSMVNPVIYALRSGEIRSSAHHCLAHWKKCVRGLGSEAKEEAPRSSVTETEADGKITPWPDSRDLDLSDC
T3 sequence (P41595 whole entry, species assumed): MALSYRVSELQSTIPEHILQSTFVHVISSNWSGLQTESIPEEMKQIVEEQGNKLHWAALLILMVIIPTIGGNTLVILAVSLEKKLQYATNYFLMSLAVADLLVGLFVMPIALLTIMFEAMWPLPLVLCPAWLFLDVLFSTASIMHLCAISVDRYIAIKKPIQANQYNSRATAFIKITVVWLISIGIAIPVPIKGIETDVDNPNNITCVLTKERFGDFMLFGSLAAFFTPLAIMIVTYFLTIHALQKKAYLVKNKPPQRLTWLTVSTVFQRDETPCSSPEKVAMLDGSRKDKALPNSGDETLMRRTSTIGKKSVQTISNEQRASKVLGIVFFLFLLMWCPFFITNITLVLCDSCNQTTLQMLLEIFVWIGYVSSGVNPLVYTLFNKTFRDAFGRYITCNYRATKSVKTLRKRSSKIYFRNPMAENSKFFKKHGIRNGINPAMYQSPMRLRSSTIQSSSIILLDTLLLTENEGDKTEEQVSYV
T1 sequence (P41143 whole entry, species assumed): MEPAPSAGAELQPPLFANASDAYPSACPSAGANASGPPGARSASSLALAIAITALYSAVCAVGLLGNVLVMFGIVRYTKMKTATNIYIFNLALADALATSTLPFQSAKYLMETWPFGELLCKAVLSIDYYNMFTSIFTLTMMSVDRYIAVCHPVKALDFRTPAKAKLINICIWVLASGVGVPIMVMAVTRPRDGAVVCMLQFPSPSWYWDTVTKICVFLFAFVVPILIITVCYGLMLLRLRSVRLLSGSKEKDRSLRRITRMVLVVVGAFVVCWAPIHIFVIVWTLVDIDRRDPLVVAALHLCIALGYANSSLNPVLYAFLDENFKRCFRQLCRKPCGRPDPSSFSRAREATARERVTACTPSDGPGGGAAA

`CCN(CC)C(=O)c1ccc(C2=CC3(CCNCC3)Oc3cccc(O)c32)cc1` [ADL-5859, reference compound] was tested, and the EC50 [1] was 266 nM.
Compound `COc1ccc(C(=O)c2c(C)n(CCN3CCOCC3)c3cc(I)ccc23)cc1` [AM630, reference compound] has an IC50 [2] of 260 nM.
Work on `CN(C)CCCc1cc(C(=O)Nc2ccc(-c3ccncc3)cc2)ccc1O` [GR 55562 dihydrochloride] yielded an IC50 ([3]; read-out: IC50 (known antagonists, TP-16), HTR1B) of 35 nM.
With `CSCC[C@H](NC(=O)[C@H](Cc1ccccc1)NC(=O)[C@H](Cc1c[nH]cn1)NC(=O)CNC(=O)[C@@H](NC(=O)[C@H](C)NC(=O)[C@H](Cc1c[nH]c2ccccc12)NC(=O)[C@H](CC(C)C)NC(=O)[C@H](CC(N)=O)NC(=O)CN)[C@@H](C)O)C(N)=O` [Neuromedin B, reference compound] the EC50 [4] was 0.2 nM.
`COc1ccc2[nH]cc(C3=CCNCC3)c2c1` [RU24969] showed an EC50 [3] of 18 nM.
`Cc1nc2sccn2c(=O)c1CCN1CCC(=C(c2ccc(F)cc2)c2ccc(F)cc2)CC1` [Ritanserin, reference compound] showed an IC50 [5] of 30.8 nM.
DRVYVHPF [Angiotensin II 5-valine] showed an EC50 [6] of 0.2 nM.

Source: publication PMC7799360, “Reprogramming immunosuppressive myeloid cells facilitates immunotherapy for colorectal cancer” (EMBO Molecular Medicine, 2020)
